Source: patent US20250179465A1, “SITE-SPECIFIC ENCODING OF FLUORINATED PHENYLALANINE RESIDUES IN BACTERIAL AND MAMMALIAN CELLS” (University of Iowa Research Foundation, priority 2022, published 2025)

Experiments:
[1] = molecular target: T1, PheX-B5 (Methanosarcina barkeri, UniProt Q6WRH6, C313A/N311G); assay: ESI-MS encoding fidelity of sfGFP_N150TAG expressed in HEK 293T cells with PheX-B5; format: cell-based, human; parameters: Phex-B5 HEK; expressed in transfected cells; host or cells: HEK 293T; conditions: for fidelity (encoding): PheX-B5, HEK 293T cells, sfGFP_N150TAG, 2 mM ncAA, ESI-MS, estimated
Description: (§1) HEK 293T cells were expanded in […]. […] Overall, 7-40 dishes were transfected with master mixes such that each dish received 3.5 μg of pACBAC1, 1.5 μg sfGFP_N150TAG, and 15 μL of PolyJET according to manufacturer's instructions. Media was changed before transfection and approximately 18 hrs after transfection. Cells were harvested approximately 36 hours after transfection. To harvest, each dish was washed twice with DPBS. Cells were harvested via scraping in ice-cold DPBS plus Roche protease inhibitors, on ice, pelleted by centrifugation, and flash frozen in liquid nitrogen. Cells were lysed in hypotonic lysis buffer (10 mM Tris/HCl pH 8, Roche protease inhibitors, 0.1% Triton X 100 Sigma) via dounce homogenization on ice. Cell debris and nuclei were cleared via centrifugation. Clarified lysate was diluted 1:2 in Wash buffer (25 mM Tris/HCl pH 8, 20 mM Imidazole, 150 mM NaCl) and applied to pre-equilibrated Ni-NTA resin (Qiagen). Column was washed in at least 30 volumes of wash buffer, then protein was eluted in elution buffer (25 mM Tris/HCl pH 8, 250 mM Imidazole, 150 mM NaCl). Elution was exchanged into 100 mM TEAB, prepared via 1:10 dilution of 1 M Stock (thermofisher) in ultrapure water. Finally, protein was concentrated to ˜0.5 mg/ml, flash frozen, and submitted to Novatia Inc for ESI mass spec of the intact protein. […] The spectra was analyzed in-house by Novatia (Promass software) to yield relative intensities of the dominant mass and any other apparent peaks. […] To be conservative, all other peaks were considered unexpected mass, even though they may not represent actual misincorporation.
Target sequence in this assay (Q6WRH6 other isoform, or with tags, fused parts or gaps N311G/C313A): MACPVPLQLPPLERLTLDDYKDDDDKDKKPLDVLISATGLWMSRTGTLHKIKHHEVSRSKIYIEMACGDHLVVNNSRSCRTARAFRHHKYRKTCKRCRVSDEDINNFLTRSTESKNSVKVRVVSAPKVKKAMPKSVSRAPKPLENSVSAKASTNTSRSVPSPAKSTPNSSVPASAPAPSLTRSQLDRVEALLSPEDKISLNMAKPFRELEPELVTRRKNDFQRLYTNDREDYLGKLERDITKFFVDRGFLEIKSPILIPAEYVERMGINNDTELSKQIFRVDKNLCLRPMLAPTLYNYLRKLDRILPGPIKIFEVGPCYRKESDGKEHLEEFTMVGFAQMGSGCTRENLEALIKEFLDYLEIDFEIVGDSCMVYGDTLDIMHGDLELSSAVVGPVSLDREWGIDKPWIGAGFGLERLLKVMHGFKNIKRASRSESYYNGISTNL

[2] = molecular target: T2, PheX-D6 (Methanosarcina barkeri, UniProt Q6WRH6, C313M/N311A/V366G/W382T); assay: ESI-MS encoding fidelity of sfGFP_N150TAG expressed in HEK 293T cells with PheX-D6; format: cell-based, human; parameters: Phex-D6 HEK; expressed in transfected cells; host or cells: HEK 293T; conditions: PheX-D6, HEK 293T cells, 2 mM ncAA, estimated
Description: as §1
Target sequence in this assay (Q6WRH6 other isoform, or with tags, fused parts or gaps N311A/C313M/V366G/W382T): as the sequence (Q6WRH6 other isoform, or with tags, fused parts or gaps N311G/C313A) above, with G336A, A338M, V391G, W407T counted along it

[3] = molecular target: T2, PheX-D6; assay: ESI-MS encoding fidelity of sfGFP_N150TAG expressed in E. coli with PheX-D6; format: cell-based; parameters: Phex-D6 ECOLI; expressed in transfected cells; host or cells: E. coli; conditions: sfGFP N150TAG, 1 mM ncAA, intact protein ESI-MS
Description: (§2) Previously existing E. coli containing sfGFP150TAG and a given Rs in non-inducing media were used to inoculate 5 mL cultures of non-inducing media containing 50 μg/mL Kan and 25 μg/mL Tet. Cultures were incubated for 20 hours at 37° C., shaking at 250 rpm. After adequate growth, 500 μL of the 5 mL cultures were used to inoculate 50 mL cultures of auto-inducing media containing 1 mM ncAA. Cultures were incubated for 24 hours (37° C., 250 rpm), after which cultures were then spun down at 5000 rcf for 10 minutes and resuspended in 10 mL of a Tris buffer solution containing 100 mM Tris, 0.5 M NaCl, and 5 mM imidazole. Cells were lysed by micro-fluidization at 18,000 psi and centrifuged at […] for 30 minutes. sfGFP proteins in cell lysate were bound to TALON Metal Affinity Resin (bed volume of 100 μL) at 4° C. for 1 hour. Lysate and bound resin were transferred to a gravity-flow column and the resin was washed with 30 bed volumes of buffer. Protein was eluted using Tris buffer solution previously described supplemented with 200 mM imidazole. Protein concentration was assessed by comparing sfGFP fluorescence to a standard curve and submitted for ESI-MS.
(§3) The spectra were analyzed in-house by Novatia (Promass) to yield relative intensities at given masses. […] For the purpose of estimating encoding fidelity, these were considered part of the expected mass, and all other signals were considered non-expected mass.
Target sequence in this assay (Q6WRH6 whole entry N311A/C313M/V366G/W382T): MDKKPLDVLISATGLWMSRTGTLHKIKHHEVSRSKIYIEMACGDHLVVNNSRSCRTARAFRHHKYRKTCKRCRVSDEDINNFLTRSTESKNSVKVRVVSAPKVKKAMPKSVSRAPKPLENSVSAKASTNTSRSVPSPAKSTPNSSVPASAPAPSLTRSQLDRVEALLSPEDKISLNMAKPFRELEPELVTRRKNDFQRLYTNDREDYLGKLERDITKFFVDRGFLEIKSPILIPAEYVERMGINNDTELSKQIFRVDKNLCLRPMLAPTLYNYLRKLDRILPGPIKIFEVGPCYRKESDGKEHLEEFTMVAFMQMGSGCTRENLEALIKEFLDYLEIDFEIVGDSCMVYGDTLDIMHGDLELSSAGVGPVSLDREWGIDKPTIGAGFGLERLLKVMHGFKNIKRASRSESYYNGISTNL

[4] = molecular target: T1, PheX-B5; format: cell-based; parameters: Phex-B5 ECOLI; expressed in transfected cells; host or cells: E. coli; conditions: PheX-B5, E. coli, sfGFP N150TAG, 1 mM ncAA, intact protein ESI-MS
Description: as §2, §3
Target sequence in this assay (Q6WRH6 whole entry N311G/C313A): as the sequence (Q6WRH6 whole entry N311A/C313M/V366G/W382T) above, with A311G, M313A, G366V, T382W counted along it

[5] = system: sfGFP-N150TAG; assay: Permissivity screen (E. coli), sfGFP-N150TAG rescue fluorescence; format: cell-based; conditions: result in words; for encoding level in E. coli by the synthetases tested: 1 mM ncAA, 24 hours
Description: Electrocompetent DH10B cells containing the pALS reporter plasmid were transformed with isolated pBK plasmids containing the synthetases. Cultures of 5 mL were inoculated with single colonies of each synthetase in non-inducing media with 50 μg/mL kanamycin and 25 μg/mL tetracycline and grown for 16 hours. Noncanonical amino acid stocks were made at 100× their final concentration. 96-well blocks were prepared with 500 μL of auto-induction media containing antibiotics, and ncAAs with a final working concentration of 1 mM were added to their respective wells. Each well was then inoculated with a corresponding synthetase, yielding a final 96-well block where each synthetase was tested against each amino acid of interest. Cultures were grown in duplicate and fluorescence measurements were taken at 24 hours.

[6] = system: F1486TAG-hNav 1.5; assay: Western blot of full-length F1486TAG-hNav 1.5 expression via PheX-D6; format: cell-based, human; conditions: F1486TAG hNav 1.5 with PheX-D6, HEK 293T, 2 mM ncAA, result in words
Description: (§4) pCMV-CFTR was a gift from Paul McCray (University of Iowa). WT CFTR-TAA (the existing TAG stop codon changed to TAA), F508 TAG CFTR (TAG amber codon introduced at F508 in the above WT construct), as well as WT and F1486TAG hNav 1.5_strep_HIS_strep were produced using standard methods and sequenced through the open reading frame. For expression of WT CFTR, 10 cm dishes of HEK 293T cells were transfected with 1.5 μg WT CFTR-TAA and 0.25 μg WT GFP. For expression of WT hNav 1.5, 10 cm dishes of HEK 293T cells were transfected with 1.5 μg of WT hNav 1.5_strep_HIS_strep and 0.25 μg WT GFP. For encoding of 2,3,6F Phe, 10 cm dishes of HEK 293T cells were transfected from master mixes of DNA such that each dish received 3.5 μg of PheX-D6 and 0.25 μg of sfSFGFP_N150TAG. Depending on condition, 2 μg of F508TAG-CFTR or 1.5 μg of F1486TAG-Nav 1.5-SHS were added. Media was changed twice (˜16 hr and ˜32 hr post transfection), and cells were harvested ˜44 hrs post transfection and flash frozen in aliquots. Cell pellets were resuspended in RIPA (Sigma Aldrich) plus Roche protease inhibitors. 60 μg of protein from cleared, unconcentrated lysate (or a dilution) was loaded on 4-20% SDS gels. […]

[7] = system: F508TAG-CFTR; assay: Western blot of full-length F508TAG-CFTR expression via PheX-D6; format: cell-based, human; conditions: F508TAG CFTR with PheX-D6, HEK 293T, 2 mM ncAA, result in words
Description: as §4

[8] = system: sfGFP_N150TAG; assay: Permissivity screen (mammalian), lysate GFP fluorescence; format: cell-based, human; conditions: HEKT cells, PheX-D6, result in words
Description: HEKT cells were seeded in 60 mm dishes so that they would be approximately 60-80% confluent the next day. We transfected the cells using 1.75 μg of the PacBac1-based synthetase plasmid (PheX-D6 or PheX-B5) and 0.75 μg of sfGFP_N150TAG per dish. Polyjet was used (7.5 μl per dish, 2.5 mL media volume). Media was exchanged to contain ncAAs at a given concentration before transfection and approximately 16 hours after transfection. Amino acids were solubilized either in NaOH for those synthesized as free acids (penta-flouro, 2,3,6 trifluoro, 3,4,5 trifluoro, 2,5 difluoro, 2,4 difluoro, 2 mono) or in HCl for those synthesized as HCl salts (2,3,5,6 tetrafluoro, 2,3,4,5 tetrafluoro, 2,6 difluoro). Cells were imaged and harvested approximately 24 hrs after transfection. Images were taken with 20× objective using a Leica DFC9000GT camera with 700 ms exposure, without binning. Excitation was through an X-Cite 120 LED (Lumen Dynamics) set to 100% intensity. For bright field images, light was adjusted manually. […] After cell debris and nuclei were cleared via centrifugation, GFP fluorescence was read from supernatants in 96 well plates; for each concentration of amino acid, at least 6 readings were made from at least 2 transfections. The level of fluorescence from lysates from untransfected cells averaged 21.7±2.1 RFU. […]

SMILES | fidelity (encoding) [1] [%] | fidelity (encoding) [2] [%] | encoding fidelity [3] [%] | encoding fidelity [4] [%] | encoding level in E. coli by the synthetases tested [5] | expression of full-length channel (western blot) [6] | expression of full-length channel (western blot) [7] | site-specificity of encoding (ESI-MS) ([1]; HEKT cells, sfGFP-N150TAG with PheX-B5, result in words) | expression in the screen ([5]; E. coli, D6 synthetase) | useable ncAA concentration (dose-response) [8]
N[C@@H](Cc1cc(F)c(F)c(F)c1F)C(=O)O [2,3,4,5-fluoro phenylalanine, 2,3,4,5 tetra-fluoro Phenylalanine] | 97.4 | 100 | – | – | – | – | – | – | – | –
N[C@@H](Cc1c(F)c(F)cc(F)c1F)C(=O)O [2,3,5,6-fluoro Phe, 2,3,5,6 tetra-fluoro Phenylalanine] | 100 | 98.2 | 98.7 | 97.9 | comparable levels to para-methyl tetra-fluoro Phe | – | – | – | – | –
N[C@@H](Cc1c(F)ccc(F)c1F)C(=O)O [2,3,6-fluoro Phe, 2,3,6 tri-fluoro Phenylalanine] | 100 | 98.5 | 96.7 | 88.1 | – | dependent on addition of 2,3,6F Phe | dependent on addition of 2,3,6F Phe | – | – | –
N[C@@H](Cc1cc(F)ccc1F)C(=O)O [2,5-fluoro phenylalanine, 2,5-difluoro-Phe] | 91.3 | 95.6 | – | – | – | – | – | – | – | –
N[C@@H](Cc1c(F)cccc1F)C(=O)O [2,6-fluoro Phe, 2,6 di-fluoro Phenylalanine] | 100 | 97.6 | 95.0 | 81.8 | – | – | – | – | – | –
N[C@@H](Cc1ccccc1F)C(=O)O [2-fluoro Phe, 2-mono fluoro Phenylalanine] | – | – | – | 95.6 | – | – | – | widespread encoding of 2-mono fluoro Phe at Phe-codons | low expression in the screen | –
N[C@@H](Cc1c(F)c(F)c(F)c(F)c1F)C(=O)O [Penta-fluoro Phe, 2,3,4,5,6 penta-fluoro Phenylalanine] | 96.2 | 97.5 | 98.2 | 97.5 | comparable levels to para-methyl tetra-fluoro Phe | – | – | – | – | useable at sub-millimolar concentrations
